Columns and labels:
Kf (exo-) polymerase = target: T1, Kf (exo-) polymerase (Escherichia coli, UniProt P00582, D355A/E357A); type: biochemical, E. coli; conditions: for signal on the T20 template sequence (misincorporation of adenosine ribonucleotide moiety): 20 μM ARN, (T)20 template, Kf polymerase
T1 construct: Klenow fragment of DNA polymerase I 3′-exonuclease deficient variant, Kf exo^−; purchased New England BioLabs
Procedure: polymerase. (A) Primer-template duplexes with (N)20 ends used in this study. (B) Luminescence signals resulting from the incorporation of ATP-linked nucleotides by Kf (exo.) polymerase. The Kf (exo.) polymerase reaction was carried out with 20 μM chimeric nucleotides and 1 μM corresponding primer template at 37° C. for 1 h. 5 μL of polymerase reaction solution were used for the luciferase reaction. […] (C) Kf (exo.) polymerase selectivity with chimeric nucleotides. The reaction was carried out using the (T)20 template and each of the four ARNs under the same reaction conditions as FIG. 2B.
FIG. 5. Selectivity of chimeric nucleotides with Kf (exo-) polymerase. Each of the four chimeric ARNs was supplied with the polymerase and the annealed primer-template duplex immediately upstream of the sequence T20 (A), C20 (B), A20 (C), and G20 (D), respectively. The polymerase reaction contained: 20 μM chimeric nucleotide, 1 μM corresponding primer/template and 1 μL Kf (exo-) polymerase in manufacturer's polymerase reaction buffer. After 1 h incubation at 37° C., 5 μL reaction solutions were added to 95 μL luciferase reaction solution. The bioluminescence signal was recorded at 1 min intervals over 1 h by microplate fluorimeter.
Our initial studies were directed at testing whether these modified nucleotides would be active as substrates for a DNA polymerase. We carried out experiments of primer extension on short synthetic primer/template duplexes (FIG. 2; 1 μM) in the presence of a standard polymerase (Klenow fragment of DNA polymerase I 3′-exonuclease deficient variant, Kf exo^−). We supplied one ARN at a time (20 μM) to its complementary template for one hour; if synthesis were successful it should generate up to ˜20 μM ATP as by-product of the reaction. We removed a small aliquot of the polymerase reaction and measured luminescence from this aliquot containing ATP in a commercial luciferase+luciferin reaction buffer over one hour (FIG. 2B). […] In this latter case we hypothesize the presence of intra- or inter-molecular G quadruplex structures that may inhibit the polymerase, possibly explaining the diminishment of ATP signal. In all four cases, signals were considerably (13-33-fold) higher than background in which primer/template DNA was omitted.
Next we tested sequence selectivity of the chimeric nucleotides, evaluating sixteen combinations of ARNs with the four DNA sequences (FIG. 2C and FIG. 5). In all cases, the correct nucleotide/target sequence combinations yielded much higher signals than incorrect combinations, showing clear nucleotide/template base selectivity. […]
Primer extension and luciferase signaling with short linear test templates. […] The bioluminescence signal was recorded by microplate fluorometer (Fluoroskan Ascent, Thermal). […]

[1] = target: T2, Klenow fragment exo− polymerase (Escherichia coli, UniProt P00582, D355A/E357A); type: biochemical, E. coli; conditions: Kf exo−; for Km / kcat: 37° C., single nucleotide incorporation, mean ± SD of three
T2 construct: Klenow fragment of DNA polymerase I 3′-exonuclease deficient variant, Kf exo^−; purchased New England BioLabs
Text: Next we performed experiments to quantify the efficiency of ARNs as DNA polymerase substrates. We used published analytical high-resolution gel-based methods to evaluate steady state kinetics of the four nucleotides as substrates during single nucleotide incorporation experiments, with Kf exo^−. We performed similar measurements with the natural dNTPs for comparison.
Steady-State DNA Polymerase Efficiency with Chimeric ATP-Releasing Nucleotides, with Kf Exo^−.
Steady-state kinetics measurements. Steady-state kinetics assays were performed following previously published procedures (Swanson et al. Biochemistry 2011, 50, 7666-7673). The 13mer primer (SEQ ID NO:13, 5′-[…]-3′) was end labeled with T4 polynucleotide kinase and [γ-^32P]-ATP following the manufacturer's protocol. The 20mer template ODNs (SEQ ID NO:14, 5′-[…]-3′, N=A, T, C, G) were annealed with 5′-^32P-labeled 13mer primer as described above. The annealed primer-template duplex (0.05 μM) was incubated with Klenow fragment exo^− polymerase at 37° C. for 5 min in the presence of individual dNTPs or chimeric ATP-linked nucleotides at varied concentrations.
The parameters were adjusted to result in extents of reaction of 20% or less to maintain initial velocity conditions. The reaction was terminated with an equal volume of formamide gel loading buffer (95% formamide, 20 mM EDTA, 0.05% xylene cyanol and bromophenol blue). Extension products were separated on 20% denaturing polyacrylamide gels containing 8 M urea. Gel band intensities of the primer and its extension products were quantified using a Typhoon 9410 Variable Mode Imager. Quantitative imaging of bands was carried out using Image J software to determine the fraction of primer extension. The velocity was plotted as a function of dNTP (or ARN) concentration and fit with the Michaelis-Menten equation to obtain the kinetic parameters, Vmax and Km. Reactions were performed three times and the mean (±standard deviation) of Vmax and Km are reported. The kcat values were calculated by dividing the Vmax with the concentration of polmerase used. The efficiency of nucleotide incorporation was calculated by the ratio Kcat/Km.

T1 sequence (P00582 324-928 D355A/E357A): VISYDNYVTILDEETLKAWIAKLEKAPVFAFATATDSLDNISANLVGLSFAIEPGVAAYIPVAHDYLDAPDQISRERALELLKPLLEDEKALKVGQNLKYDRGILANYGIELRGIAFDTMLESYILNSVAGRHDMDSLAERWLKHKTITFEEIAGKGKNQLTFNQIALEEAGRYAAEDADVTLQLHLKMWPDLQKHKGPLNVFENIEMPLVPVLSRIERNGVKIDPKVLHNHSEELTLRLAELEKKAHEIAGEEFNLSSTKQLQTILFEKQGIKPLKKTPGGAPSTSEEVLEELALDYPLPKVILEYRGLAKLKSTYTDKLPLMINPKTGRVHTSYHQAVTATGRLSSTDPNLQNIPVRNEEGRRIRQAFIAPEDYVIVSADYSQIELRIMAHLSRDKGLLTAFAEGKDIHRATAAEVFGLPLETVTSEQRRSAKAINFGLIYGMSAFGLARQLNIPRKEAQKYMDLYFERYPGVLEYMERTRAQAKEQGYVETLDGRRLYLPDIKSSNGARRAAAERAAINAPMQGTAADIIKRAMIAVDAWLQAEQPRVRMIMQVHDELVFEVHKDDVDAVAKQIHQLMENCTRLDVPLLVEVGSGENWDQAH
T2 sequence (P00582 324-928 D355A/E357A): as above

SMILES | signal on the T20 template sequence (misincorporation of adenosine ribonucleotide moiety) (Kf (exo-) polymerase) | background signal in selectivity experiments (Kf (exo-) polymerase; sixteen combinations of ARNs with four DNA sequences) | Km [1] | kcat [1] | kcat/Km less than that of native congener dNTP [1]
Nc1ccn([C@H]2C[C@H](O)[C@@H](COP(=O)(O)OP(=O)(O)OP(=O)(O)OP(=O)(O)OC[C@H]3O[C@@H](n4cnc5c(N)ncnc54)[C@H](O)[C@@H]3O)O2)c(=O)n1 [dCppppA, Deoxycytidine-5′-tetraphosphate-P4-5′-Adenosine] | lack of enhanced signal | main background signal | 3 ± 0.2 µM | 0.215 ± 0.0017 s⁻¹ | –
Nc1ccn([C@H]2C[C@H](O)[C@@H](COP(=O)(O)OP(=O)(O)OP(=O)(O)O)O2)c(=O)n1 [dCTP, reference compound] | – | – | 0.07 ± 0.01 µM | 0.233 ± 0.0067 s⁻¹ | –
Nc1ncnc2c1ncn2[C@H]1C[C@H](O)[C@@H](COP(=O)(O)OP(=O)(O)OP(=O)(O)O)O1 [dATP, reference compound] | – | – | 0.35 ± 0.05 µM | 0.143 ± 0.005 s⁻¹ | –
Nc1nc2c(ncn2[C@H]2C[C@H](O)[C@@H](COP(=O)(O)OP(=O)(O)OP(=O)(O)O)O2)c(=O)[nH]1 [dGTP, reference compound] | – | – | 0.11 ± 0.01 µM | 0.257 ± 0.0083 s⁻¹ | –
Nc1ncnc2c1ncn2[C@@H]1O[C@H](COP(=O)(O)OP(=O)(O)OP(=O)(O)OP(=O)(O)OC[C@H]2O[C@@H](n3cnc4c(N)ncnc43)C[C@@H]2O)[C@@H](O)[C@H]1O [dAppppA, Deoxyadenosine-5′-tetraphosphate-P4-5′-Adenosine] | – | – | 1.3 ± 0.4 µM | 0.118 ± 0.0033 s⁻¹ | 5 fold
Cc1cn([C@H]2C[C@H](O)[C@@H](COP(=O)(O)OP(=O)(O)OP(=O)(O)OP(=O)(O)OC[C@H]3O[C@@H](n4cnc5c(N)ncnc54)[C@H](O)[C@@H]3O)O2)c(=O)[nH]c1=O [dTppppA, Thymidine-5′-tetraphosphate-P4-5′-Adenosine] | lack of enhanced signal | – | 2.2 ± 0.6 µM | 0.0617 ± 0.0017 s⁻¹ | –
Nc1nc2c(ncn2[C@H]2C[C@H](O)[C@@H](COP(=O)(O)OP(=O)(O)OP(=O)(O)OP(=O)(O)OC[C@H]3O[C@@H](n4cnc5c(N)ncnc54)[C@H](O)[C@@H]3O)O2)c(=O)[nH]1 [dGppppA, Deoxyguanosine-5′-tetraphosphate-P4-5′-Adenosine] | lack of enhanced signal | – | 3.5 ± 0.4 µM | 0.118 ± 0.0083 s⁻¹ | 70 fold
Cc1cn([C@H]2C[C@H](O)[C@@H](COP(=O)(O)OP(=O)(O)OP(=O)(O)O)O2)c(=O)[nH]c1=O [dTTP, reference compound] | – | – | 0.24 ± 0.06 µM | 0.145 ± 0.005 s⁻¹ | –

Reference: patent US20170159112A1, “AMPLIFIED ISOTHERMAL DETECTION OF POLYNUCLEOTIDES WITH ATP RELEASE” (priority 2015, published 2017)
